Measured values reported in article PMC10146558, “Highly Cytotoxic Copper(II) Mixed-Ligand Quinolinonato Complexes: Pharmacokinetic Properties and Interactions with Drug Metabolizing Cytochromes P450” (Pharmaceutics, 2023).
“And” between values parts separate entries of the source, which are not always exact repeats. Equal entries are not always repeated.

What was measured:
CYP3A4/5 = CYP3A4/5 activity (testosterone 6β-hydroxylation) in human liver microsomes; settings: for Type of inhibition, CYP3A4/5 (testosterone 6β-hydroxylation) / Ki: Dixon and Lineweaver–Burk plots; for IC50: read-out: IC50 CYP3A4/5 (testosterone 6β-hydroxylation assay), human liver microsomes; for Ki: read-out: Ki CYP3A4/5 (testosterone 6β-hydroxylation assay), substrate ½ Km to 4 Km
Description: For each enzyme assay, the preliminary experiments to determine Michaelis constant (Km) and limiting velocity (Vmax) were performed to calculate the time of incubation (the specified time for which the reaction is still linear) and the values of substrate concentration (in the range corresponding to the value of Km). The amount of human liver microsomes (HLM; expressed as the amount of CYP in pmol and the concentration of HLM protein in mg/mL in the reaction vessel) in the reaction was determined using previously established protocols [40].
The reaction mixtures were buffered by 0.1 M potassium phosphate buffer (pH 7.4) and contained a NADPH-generating system consisting of the isocitrate dehydrogenase (6 U/mL), NADP^+ (0.5 mM), isocitric acid (4 mM), and MgSO4 (5 mM). The final concentration levels of complexes were obtained by diluting a 10 mM solution with dimethyl sulfoxide (DMSO). It is known that DMSO can in some cases inhibit P450; the following measures were thus applied: (a) control samples containing organic solvent without the tested compounds were prepared and used as references; (b) DMSO levels were maintained below 0.1% to minimise the inhibition. Inhibition experiments were performed using five concentration levels of the tested compounds in the range of 10–100 µM. The maximum concentration was chosen so that in the case of inhibition, it would be possible to determine the inhibitory effect of the complexes and characterise them by determining the IC50 value. Additionally, an inhibitor-free control was used as a reference. Incubations were executed in two independent batches, and the samples were prepared and measured in triplicate at 37 °C.
The type of model was selected on the basis of the Lineweaver–Burk and Dixon plots. The values of IC50 were obtained by analysing the plot of the percentage of activity remaining after inhibition versus the logarithm of the inhibitor concentration using the GraphPad Prism 6 software (La Jolla, CA, USA).

CYP3A4 [1] = target: T1, CYP3A4 (Homo sapiens, UniProt P08684); experiment: Isothermal titration calorimetry, recombinant human CYP3A4; assay type: binding; design: purchased Sigma-Aldrich (Prague, Czech Republic); settings: recombinant human CYP3A4, 25 °C; for n, CYP3A4: ITC stoichiometry, pH 7.4; for Ka, CYP3A4 / Kd / ΔG, CYP3A4 / ΔH, CYP3A4 / ΔS, CYP3A4: ITC, pH 7.4, 1% DMSO
Description: The interactions of the compounds with selected forms of cytochrome P450, i.e., human bactosomes CYP1A2, CYP2A6, CYP3A4, and recombinant human CYP3A4, were studied using isothermal titration calorimetry (ITC). ITC experiments were performed at 25 °C with a Nano ITC Low Volume (TA Instruments, New Castle, DE, USA). During all measurements, 20 injections of 16µM of the studied compound (2.5 µL each) were titrated into 250 µL of protein (2 µM) with time intervals of 300 s and a stirring speed of 250 rpm. All ITC experiments were conducted with degassed buffered solutions (100 mM phosphate buffer, pH 7.4) in the presence of 1% DMSO. Control experiments included the titration of each complex solution into a buffer. The corrected data refer to experimental data after subtraction of the buffer control data from the compounds data. The resulting thermograms were analysed using the “Independent” model within the NanoAnalyze software (TA Instruments, New Castle, DE, USA).
Target sequence in this assay (P08684 whole entry): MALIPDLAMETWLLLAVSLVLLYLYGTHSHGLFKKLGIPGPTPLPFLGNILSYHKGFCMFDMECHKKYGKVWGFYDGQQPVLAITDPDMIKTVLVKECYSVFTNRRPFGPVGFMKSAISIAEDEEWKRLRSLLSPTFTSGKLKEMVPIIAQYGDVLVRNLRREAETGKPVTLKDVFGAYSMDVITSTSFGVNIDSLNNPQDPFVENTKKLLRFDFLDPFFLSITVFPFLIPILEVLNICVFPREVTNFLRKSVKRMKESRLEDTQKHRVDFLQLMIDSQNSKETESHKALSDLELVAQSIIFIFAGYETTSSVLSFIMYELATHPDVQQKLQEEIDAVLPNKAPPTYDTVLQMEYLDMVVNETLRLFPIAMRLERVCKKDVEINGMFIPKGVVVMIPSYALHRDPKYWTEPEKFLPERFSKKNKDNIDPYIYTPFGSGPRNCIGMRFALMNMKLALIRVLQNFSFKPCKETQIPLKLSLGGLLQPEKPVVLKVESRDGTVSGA

CYP2C19 = target: T2, CYP2C19 (Homo sapiens, UniProt P33261); experiment: CYP2C19 activity ((S)-mephenytoin 4′-hydroxylation) in human liver microsomes; assay type: biochemical; settings: for Type of inhibition, CYP2C19 / Ki: Dixon and Lineweaver–Burk plots; for Ki: substrate ½ Km to 4 Km; for IC50: human liver microsomes, (S)-mephenytoin 4′-hydroxylation
T2 construct: Cryopreserved pooled human liver microsomes were obtained from Xenotech; tissue Xenotech (Lenexa, KS, USA); host or cells: pooled human liver microsomes
Description: (§3) For each enzyme assay, the preliminary experiments to determine Michaelis constant (Km) and limiting velocity (Vmax) were performed to calculate the time of incubation (the specified time for which the reaction is still linear) and the values of substrate concentration (in the range corresponding to the value of Km).
(§4) The reaction mixtures were buffered by 0.1 M potassium phosphate buffer (pH 7.4) and contained a NADPH-generating system consisting of the isocitrate dehydrogenase (6 U/mL), NADP^+ (0.5 mM), isocitric acid (4 mM), and MgSO4 (5 mM). The final concentration levels of complexes were obtained by diluting a 10 mM solution with dimethyl sulfoxide (DMSO). It is known that DMSO can in some cases inhibit P450; the following measures were thus applied: (a) control samples containing organic solvent without the tested compounds were prepared and used as references; (b) DMSO levels were maintained below 0.1% to minimise the inhibition. Inhibition experiments were performed using five concentration levels of the tested compounds in the range of 10–100 µM. The maximum concentration was chosen so that in the case of inhibition, it would be possible to determine the inhibitory effect of the complexes and characterise them by determining the IC50 value. Additionally, an inhibitor-free control was used as a reference. Incubations were executed in two independent batches, and the samples were prepared and measured in triplicate at 37 °C. Analyses of the metabolites formed from the specific substrates were performed by HPLC using the Prominence system (Shimadzu, Kyoto, Japan) equipped with a LiChroCART 250-4 LiChrospher 100 RP-18 column, Chromolith® HighResolution RP-18 end-capped column (Merck, Darmstadt, Germany), or Kinetex Biphenyl column (Phenomenex, Torrace, CA, USA).
(§5) The apparent Ki values were determined by additional measurements using substrate concentrations corresponding to 1/2 Km, Km, 2 Km, and 4 Km in the case of inhibition. The type of model was selected on the basis of the Lineweaver–Burk and Dixon plots. The values of IC50 were obtained by analysing the plot of the percentage of activity remaining after inhibition versus the logarithm of the inhibitor concentration using the GraphPad Prism 6 software (La Jolla, CA, USA).

[2] = Stability in human plasma; assay type: in vitro ADME; settings: 37 °C, 3.3 μM
Description: (§1) Pharmacological properties of the complexes 1 and 2, including stability in plasma, microsomal stability, binding to plasma proteins, and permeability through an artificial membrane, were tested under in vitro conditions and according to methods described in previous reports. Analysis of the samples was performed using Agilent RapidFire 300 High-Throughput Mass Spectrometry System (Agilent Technologies, Wakefield, MA, USA) with subsequent detection using the mass spectrometer Qtrap 5500 (AB Sciex, Concord, Toronto, ON, Canada), abbreviation RF-MS. The samples were aspirated directly from the plates into a 10 μL sample loop and passed through a C4 cartridge with solvent A (5% acetonitrile, 95% water, 0.1% formic acid) at a flow rate of 1.5 mL/min for 3 s. After the desalting step, analytes retained on the cartridge were eluted with solvent B (95% acetonitrile, 5% water, 0.1% formic acid) in the mass spectrometer at a flow rate of 0.4 mL/min for 5 s. The mass spectrometry of the samples was carried out using electrospray ionisation in the positive ion mode. Daughter ion peaks were identified using a multiple-reaction monitoring protocol.
(§2) The reaction was terminated by ice-cold methanol (chemical stability) or acetonitrile:methanol (2:1), and samples were left at −80 °C overnight (plasma stability). The solution was mixed and centrifuged (4000 rpm, 9 min, 4 °C). After lyophilization of supernatant, samples were dissolved in mobile phase with internal standard and analysed by RF/MS analysis.

[3] = Microsomal stability assay; assay type: in vitro ADME; settings: human liver microsomes, NADPH-generating system, 5.74 μM
Description: as §1
According to the protocol, reaction mixtures included tested compound (5.74 μM), human liver microsomes, NADPH-generating system consisting of NADP^+, isocitrate dehydrogenase, isocitric acid, and MgSO4 in 100 mM K/PO4 buffer. Assay was performed at 0, 15, 30, and 60 min. Reactions were terminated using acetonitrile–methanol (2:1) mixture. After centrifugation, the supernatant was lyophilized and analysed by RF-MS. The values of intrinsic clearance were calculated using the formula: CLint = 0.693/t1/2/mg microsome protein per mL of reaction.

[4] = Chemical stability (stability in PBS); assay type: physicochemical; settings: 1 × PBS pH 7.4, 37 °C, 7.4 µM
Description: as §1, §2

CYP3A4 [5] = target: T1, CYP3A4; experiment: CYP3A4 activity (midazolam 1′-hydroxylation) in human liver microsomes; settings: read-out: IC50 CYP3A4 (midazolam 1′-hydroxylation assay); human liver microsomes
Target sequence in this assay (P08684 2-503): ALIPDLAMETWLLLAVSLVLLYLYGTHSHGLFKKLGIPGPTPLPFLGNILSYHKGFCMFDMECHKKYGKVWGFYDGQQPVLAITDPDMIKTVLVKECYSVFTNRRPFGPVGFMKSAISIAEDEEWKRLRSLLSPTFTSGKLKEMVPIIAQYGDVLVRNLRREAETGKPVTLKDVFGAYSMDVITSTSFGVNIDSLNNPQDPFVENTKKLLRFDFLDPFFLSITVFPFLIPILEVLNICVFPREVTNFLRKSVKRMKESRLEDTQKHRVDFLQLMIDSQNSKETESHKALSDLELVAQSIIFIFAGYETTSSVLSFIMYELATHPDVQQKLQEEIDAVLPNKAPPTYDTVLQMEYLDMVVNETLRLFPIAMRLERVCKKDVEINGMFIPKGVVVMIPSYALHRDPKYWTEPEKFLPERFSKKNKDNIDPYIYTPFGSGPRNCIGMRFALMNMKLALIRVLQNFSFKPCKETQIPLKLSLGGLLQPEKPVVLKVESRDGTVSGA
Description: as §3, §4, §5

plasma proteins = experiment: Plasma protein binding (rapid equilibrium dialysis); assay type: in vitro ADME, human; settings: 10 μM in 50% plasma, 37 °C, 4 h
Description: as §1, with “The mass spectrometry of the samples was carried out using electrospray ionisation in the positive ion mode. Daughter ion peaks were identified using a multiple-reaction monitoring protocol.” left out
The fraction bound value was determined using the semipermeable membrane that separates a protein-containing compartment (R chamber) from a protein-free compartment (W chamber) (Rapid Equilibrium Dialysis, Thermo Scientific™, Rockford, IL, USA). […] Samples were dissolved in mobile phase containing internal standard and analysed on the RF/MS.

T2 sequence (P33261 whole entry): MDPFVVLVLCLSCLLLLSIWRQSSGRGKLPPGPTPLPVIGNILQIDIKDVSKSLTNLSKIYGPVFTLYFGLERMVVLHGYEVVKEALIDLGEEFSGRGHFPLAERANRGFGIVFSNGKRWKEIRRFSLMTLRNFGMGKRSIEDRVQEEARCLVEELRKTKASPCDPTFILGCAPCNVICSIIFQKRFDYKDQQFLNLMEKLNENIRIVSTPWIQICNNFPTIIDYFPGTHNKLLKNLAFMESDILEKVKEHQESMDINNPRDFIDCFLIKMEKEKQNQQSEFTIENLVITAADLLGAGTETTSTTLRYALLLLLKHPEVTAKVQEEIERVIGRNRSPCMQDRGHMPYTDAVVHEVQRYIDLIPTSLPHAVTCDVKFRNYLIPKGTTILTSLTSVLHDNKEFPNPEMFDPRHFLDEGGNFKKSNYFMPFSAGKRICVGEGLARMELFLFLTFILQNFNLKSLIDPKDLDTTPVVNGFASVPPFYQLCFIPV

SMILES	Type of inhibition, CYP3A4/5 (testosterone 6β-hydroxylation) (CYP3A4/5)	IC50 (CYP3A4/5)	Ki (CYP3A4/5)	n, CYP3A4 (CYP3A4 [1])	Ka, CYP3A4 (CYP3A4 [1])	Kd (CYP3A4 [1])	ΔG, CYP3A4 (CYP3A4 [1])	ΔH, CYP3A4 (CYP3A4 [1])	ΔS, CYP3A4 (CYP3A4 [1])	Type of inhibition, CYP2C19 (CYP2C19)	Ki (CYP2C19)	IC50 (CYP2C19)	% Compound Remaining, Plasma Stability, 15 min [2]	% Compound Remaining, Plasma Stability, 30 min [2]	% Compound Remaining, Plasma Stability, 60 min [2]	% Compound Remaining, Plasma Stability, 120 min [2]	% Compound remaining, Microsomal stability, 15 min [3]	% Compound remaining, Microsomal stability, 30 min [3]	% Compound remaining, Microsomal stability, 60 min [3]	% Compound Remaining, Chemical Stability, 15 min [4]	further results
Cc1cc2cccnc2c2ncccc12.O.O=[N+]([O-])[O-].O=c1c([O-])c(-c2ccccc2)[nH]c2ccccc12.[Cu+2] [complex 1]	non-competitive	2.46 µM	3.6 ± 0.67 µM	1.171	1.3e+07 M⁻¹	0.0769 µM	−34,899.9 J/mol	-21.05 kcal/mol	−178.3 J/mol.K	non-competitive	4.15 ± 0.71 µM	61.2 µM	98.9 ± 2.5%	94.0 ± 3.3%	94.2 ± 2.3%	91.2 ± 1.2%	99.4 ± 3.5%	80.7 ± 2.8%	78% and 78.1 ± 1.7%	99.6 ± 3.6%	% Compound Remaining, Chemical Stability, 30 min [4]: 99.9 ± 1.5%; % Compound Remaining, Chemical Stability, 60 min [4]: 97.8 ± 3.4%; % Compound Remaining, Chemical Stability, 120 min [4]: 96.6 ± 3.4%; IC50 (CYP3A4 [5]): 28.8 ± 2.55 µM; Plasma protein binding, % Fraction bound (plasma proteins): 95% and 95.1 ± 1.0%
Cc1cc2cccnc2c2ncccc12.F[B-](F)(F)F.O.O=c1c([O-])c(-c2ccccc2)[nH]c2ccccc12.[Cu+2] [complex 2]	fully non-competitive	4.88 µM	3.94 ± 0.6 µM	1.095	1.59e+07 M⁻¹	0.0629 µM	-1.3352 kcal/mol	-12.37 kcal/mol	−154.9 J/mol.K	fully non-competitive	9.14 ± 0.8 µM	77.1 µM	98.3 ± 2.4%	94.1 ± 2.4%	96.6 ± 3.4%	92.6 ± 2.2%	76.5 ± 2.7%	76.2 ± 2.7%	70% and 69.7 ± 2.4%	99.6 ± 3.0%	CYP3A4/5 activity remaining (testosterone 6β-hydroxylation), % of basal activity (CYP3A4/5; at 100 μM): 1%; CYP2C19 activity remaining, % of the basal activity (CYP2C19; at 100 μM): 36%; % Compound Remaining, Chemical Stability, 30 min [4]: 96.8 ± 2.4%; % Compound Remaining, Chemical Stability, 60 min [4]: 94.0 ± 3.3%; % Compound Remaining, Chemical Stability, 120 min [4]: 96.6 ± 2.4%; IC50 (CYP3A4 [5]): 33 ± 1.13 µM; Plasma protein binding, % Fraction bound (plasma proteins): 93% and 92.9 ± 1.5%
